The nature of data set [1]: DRUGMATRIX: Sigma2 radioligand binding (ligand: [3H] Ifenprodil). Format: cell membranes, Rattus norvegicus, Wistar, Brain, Membrane. The note with it: Not Active = under 50% inhibition at 10 µM.
Data set [2] is described as follows: DRUGMATRIX: ATPase, Na+/K+ enzyme inhibition (substrate: ATP). Type of data set: tissue-based, Sus scrofa, Heart. The following applies: Not Active = under 50% inhibition at 10 µM.
The target of a further data set is Insulin receptor (Rattus norvegicus, UniProt P15127). Type of data set: cell membranes, Wistar, Liver, Membrane. Also: in other assays of this panel Not Active means under 50% inhibition at 10 µM.
Sequence of Insulin receptor (P15127 27-759 limits assumed): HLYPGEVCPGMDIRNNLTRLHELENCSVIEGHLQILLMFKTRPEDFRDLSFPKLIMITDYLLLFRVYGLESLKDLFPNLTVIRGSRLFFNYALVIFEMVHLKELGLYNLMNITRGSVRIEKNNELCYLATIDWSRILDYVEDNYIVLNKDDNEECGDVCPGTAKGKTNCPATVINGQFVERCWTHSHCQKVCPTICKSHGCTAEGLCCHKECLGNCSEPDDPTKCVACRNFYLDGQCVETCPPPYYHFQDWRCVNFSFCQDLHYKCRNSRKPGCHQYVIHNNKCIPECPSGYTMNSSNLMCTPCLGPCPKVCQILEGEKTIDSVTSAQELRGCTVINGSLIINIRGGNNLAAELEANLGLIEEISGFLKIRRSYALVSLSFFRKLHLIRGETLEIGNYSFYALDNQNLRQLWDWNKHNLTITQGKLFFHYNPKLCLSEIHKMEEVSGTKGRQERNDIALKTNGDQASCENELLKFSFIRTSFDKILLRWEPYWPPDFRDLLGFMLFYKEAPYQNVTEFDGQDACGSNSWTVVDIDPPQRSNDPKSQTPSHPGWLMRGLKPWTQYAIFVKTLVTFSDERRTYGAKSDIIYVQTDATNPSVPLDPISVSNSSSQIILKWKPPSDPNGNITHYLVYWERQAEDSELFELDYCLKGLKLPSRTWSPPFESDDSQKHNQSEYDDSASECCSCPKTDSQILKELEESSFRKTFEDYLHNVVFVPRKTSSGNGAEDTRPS
Sequence of Insulin receptor (P15127 764-1383 limits assumed): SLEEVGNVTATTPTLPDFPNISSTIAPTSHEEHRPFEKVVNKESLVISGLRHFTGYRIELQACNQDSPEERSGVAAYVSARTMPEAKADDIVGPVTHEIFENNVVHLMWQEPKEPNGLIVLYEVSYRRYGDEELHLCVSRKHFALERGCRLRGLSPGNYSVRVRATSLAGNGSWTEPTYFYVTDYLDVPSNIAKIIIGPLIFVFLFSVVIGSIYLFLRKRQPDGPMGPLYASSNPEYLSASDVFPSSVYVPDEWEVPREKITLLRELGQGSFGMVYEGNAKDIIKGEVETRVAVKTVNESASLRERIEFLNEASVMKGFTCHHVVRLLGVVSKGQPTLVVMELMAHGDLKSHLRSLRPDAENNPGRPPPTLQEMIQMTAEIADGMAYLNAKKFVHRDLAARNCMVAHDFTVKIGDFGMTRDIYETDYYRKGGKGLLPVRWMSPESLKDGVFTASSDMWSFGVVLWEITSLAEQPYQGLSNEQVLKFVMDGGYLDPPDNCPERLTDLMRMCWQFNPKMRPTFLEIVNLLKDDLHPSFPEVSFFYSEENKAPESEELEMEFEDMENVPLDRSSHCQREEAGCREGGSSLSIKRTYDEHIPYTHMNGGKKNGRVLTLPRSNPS
Data set [3] deals with Receptor tyrosine-protein kinase erbB-2 (Homo sapiens, UniProt P04626). The data set is described as follows: biochemical. Type of data set: cell-based, Insect cells.
Sequence of Receptor tyrosine-protein kinase erbB-2 (P04626 whole entry): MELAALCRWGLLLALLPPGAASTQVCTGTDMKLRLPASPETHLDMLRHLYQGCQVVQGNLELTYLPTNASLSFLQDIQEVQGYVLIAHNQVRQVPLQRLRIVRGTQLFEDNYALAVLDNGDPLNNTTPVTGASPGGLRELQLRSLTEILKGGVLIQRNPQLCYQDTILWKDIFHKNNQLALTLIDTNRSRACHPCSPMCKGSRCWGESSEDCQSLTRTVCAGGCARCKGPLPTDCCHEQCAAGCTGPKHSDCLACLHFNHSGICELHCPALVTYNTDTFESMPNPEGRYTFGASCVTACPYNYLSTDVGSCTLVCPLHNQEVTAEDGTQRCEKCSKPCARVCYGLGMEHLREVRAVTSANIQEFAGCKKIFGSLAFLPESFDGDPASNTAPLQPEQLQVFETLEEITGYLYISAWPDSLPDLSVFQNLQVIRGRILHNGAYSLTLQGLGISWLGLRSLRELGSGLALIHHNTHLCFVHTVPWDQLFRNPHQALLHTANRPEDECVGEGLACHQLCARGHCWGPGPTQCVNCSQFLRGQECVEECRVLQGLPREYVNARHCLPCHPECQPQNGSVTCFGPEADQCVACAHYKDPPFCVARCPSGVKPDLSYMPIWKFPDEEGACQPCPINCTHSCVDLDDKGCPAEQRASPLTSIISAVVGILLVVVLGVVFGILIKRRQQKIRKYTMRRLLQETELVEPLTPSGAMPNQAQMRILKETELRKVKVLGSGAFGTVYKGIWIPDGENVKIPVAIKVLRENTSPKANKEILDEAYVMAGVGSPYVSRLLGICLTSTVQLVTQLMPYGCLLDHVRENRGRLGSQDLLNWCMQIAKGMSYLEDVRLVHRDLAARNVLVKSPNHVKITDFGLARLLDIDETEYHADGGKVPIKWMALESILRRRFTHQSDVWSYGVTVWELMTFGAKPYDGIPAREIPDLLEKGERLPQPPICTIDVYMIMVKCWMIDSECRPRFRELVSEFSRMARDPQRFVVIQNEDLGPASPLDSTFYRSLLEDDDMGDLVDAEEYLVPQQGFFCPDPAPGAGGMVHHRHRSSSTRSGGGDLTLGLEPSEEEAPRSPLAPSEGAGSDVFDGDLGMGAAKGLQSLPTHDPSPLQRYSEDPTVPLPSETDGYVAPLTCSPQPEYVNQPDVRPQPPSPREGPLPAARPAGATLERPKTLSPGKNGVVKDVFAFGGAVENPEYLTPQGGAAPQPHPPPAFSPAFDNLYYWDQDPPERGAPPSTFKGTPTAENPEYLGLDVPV
In data set [4] the target is Beta-1 adrenergic receptor (Homo sapiens, UniProt P08588). The data set is described as follows: DRUGMATRIX: Adrenergic beta1 radioligand binding (ligand: [125I] Cyanopindolol). Type of data set: cell membranes, CHO-K1, Membrane. The following applies: Not Active = under 50% inhibition at 10 µM.
Sequence of Beta-1 adrenergic receptor (P08588 whole entry): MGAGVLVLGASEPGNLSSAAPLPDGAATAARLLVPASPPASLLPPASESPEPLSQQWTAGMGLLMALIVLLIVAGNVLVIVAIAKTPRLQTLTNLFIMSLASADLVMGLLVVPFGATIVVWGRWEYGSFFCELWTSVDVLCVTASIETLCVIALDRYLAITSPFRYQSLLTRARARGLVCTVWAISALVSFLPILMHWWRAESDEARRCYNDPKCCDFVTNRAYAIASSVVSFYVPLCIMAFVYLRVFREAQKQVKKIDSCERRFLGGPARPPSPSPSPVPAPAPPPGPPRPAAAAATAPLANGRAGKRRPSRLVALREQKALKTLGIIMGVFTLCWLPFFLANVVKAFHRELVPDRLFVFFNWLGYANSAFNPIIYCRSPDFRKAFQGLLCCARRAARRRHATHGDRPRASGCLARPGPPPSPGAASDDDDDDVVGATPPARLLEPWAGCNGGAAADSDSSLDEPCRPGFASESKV
The target of data set [5] is T1, 3-hydroxy-3-methylglutaryl-coenzyme A reductase (Homo sapiens, UniProt P04035).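 Also: enzyme inhibition assay of HMG-CoA reductase using radiolabeled [14C]HMG-CoA as substrate; in other assays of this panel Not Active means under 50% inhibition at 10 µM.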
T1 sequence (P04035 whole entry): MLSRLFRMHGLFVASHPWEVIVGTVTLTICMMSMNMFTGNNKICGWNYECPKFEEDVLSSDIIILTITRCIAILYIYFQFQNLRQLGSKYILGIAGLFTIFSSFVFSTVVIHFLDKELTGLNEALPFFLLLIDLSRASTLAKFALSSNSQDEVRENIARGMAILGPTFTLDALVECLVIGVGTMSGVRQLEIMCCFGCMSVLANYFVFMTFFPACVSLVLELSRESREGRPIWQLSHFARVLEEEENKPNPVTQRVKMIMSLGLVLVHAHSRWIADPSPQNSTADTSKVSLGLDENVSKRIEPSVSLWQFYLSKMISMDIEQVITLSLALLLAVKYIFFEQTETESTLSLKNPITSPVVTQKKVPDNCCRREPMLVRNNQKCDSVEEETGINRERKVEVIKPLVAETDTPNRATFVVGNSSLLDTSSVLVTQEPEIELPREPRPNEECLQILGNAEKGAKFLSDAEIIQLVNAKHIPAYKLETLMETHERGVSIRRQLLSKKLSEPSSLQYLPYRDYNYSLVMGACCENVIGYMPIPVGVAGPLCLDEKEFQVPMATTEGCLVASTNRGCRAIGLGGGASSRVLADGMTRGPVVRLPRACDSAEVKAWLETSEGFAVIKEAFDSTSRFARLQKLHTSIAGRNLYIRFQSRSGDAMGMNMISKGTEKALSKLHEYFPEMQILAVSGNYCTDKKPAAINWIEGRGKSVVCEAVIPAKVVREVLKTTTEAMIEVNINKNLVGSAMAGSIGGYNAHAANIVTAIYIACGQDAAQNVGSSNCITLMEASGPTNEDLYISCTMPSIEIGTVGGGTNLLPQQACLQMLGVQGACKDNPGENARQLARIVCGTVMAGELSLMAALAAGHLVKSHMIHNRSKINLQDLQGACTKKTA
Set-up: species or system Escherichia coli.

In the next data set the target is T2, Cytochrome P450 1A2 (Homo sapiens, UniProt P05177). Also: in other assays of this panel Not Active means under 50% inhibition at 10 µM.
T2 sequence (P05177 whole entry): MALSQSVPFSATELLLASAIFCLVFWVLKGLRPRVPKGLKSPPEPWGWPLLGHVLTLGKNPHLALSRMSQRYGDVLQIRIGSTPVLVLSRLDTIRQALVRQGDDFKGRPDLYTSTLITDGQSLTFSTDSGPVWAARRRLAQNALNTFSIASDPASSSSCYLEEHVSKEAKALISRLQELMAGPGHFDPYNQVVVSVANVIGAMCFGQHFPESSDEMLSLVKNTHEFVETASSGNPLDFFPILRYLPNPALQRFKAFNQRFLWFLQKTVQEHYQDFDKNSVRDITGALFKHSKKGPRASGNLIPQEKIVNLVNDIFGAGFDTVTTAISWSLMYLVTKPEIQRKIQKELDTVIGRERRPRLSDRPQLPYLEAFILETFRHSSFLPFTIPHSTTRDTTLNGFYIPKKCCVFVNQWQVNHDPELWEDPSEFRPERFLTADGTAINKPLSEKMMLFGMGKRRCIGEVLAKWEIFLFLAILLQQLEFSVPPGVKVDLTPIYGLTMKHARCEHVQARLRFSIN
The note with it: bti-tn-5b1-4.

For `CC(C)(C)NC(=O)[C@@H]1C[C@@H]2CCCC[C@@H]2CN1C[C@@H](O)[C@H](Cc1ccccc1)NC(=O)[C@H](CC(N)=O)NC(=O)c1ccc2ccccc2n1`, the IC50 result (in data set [1]; in data set [2]; on Insulin receptor; in data set [3] (insect cells); in data set [4] (cho-k1); in data set [5]) was “Not Active” throughout. Besides, on Cytochrome P450 1A2, the IC50 (usually the concentration that inhibits the measured activity by half) is recorded as “Not Active”. In addition, the Ki result (in data set [1]; in data set [2]; on Cytochrome P450 1A2) was “Not Active” in each case.

On to `CC(=O)[C@@]1(O)CC[C@H]2[C@@H]3C[C@H](C)C4=CC(=O)CC[C@]4(C)[C@H]3CC[C@@]21C`, for which the IC50 entry (in data set [1]; in data set [2]; at Insulin receptor; in data set [3] (insect cells); in data set [4] (cho-k1); in data set [5]) was “Not Active” throughout. Besides, the half-maximal inhibitory concentration (IC50) entry on Cytochrome P450 1A2 is recorded as “Not Active”. Further, the Ki entry (in data set [1]; in data set [2]; at Cytochrome P450 1A2) was “Not Active” in each case.

On to `N[C@@H](Cc1ccc(N(CCCl)CCCl)cc1)C(=O)O`, for which the IC50 entry (in data set [1]; in data set [2]; on Insulin receptor; in data set [3] (insect cells); in data set [4] (cho-k1); in data set [5]) was “Not Active” in each case. In addition, the 50% inhibitory concentration (IC50) entry against Cytochrome P450 1A2 is on record as “Not Active”. For the same compound, the inhibition constant (Ki) entry (in data set [1]; in data set [2]; on Cytochrome P450 1A2) was “Not Active” each time.

In the case of `CCCCc1oc2ccccc2c1C(=O)c1cc(I)c(OCCN(CC)CC)c(I)c1` [AMIODARONE], the half-maximal inhibitory concentration (IC50) entry against Insulin receptor is “Not Active”; in data set [3] (read-out: IC50) it was 9.15 µM; in data set [5], “Not Active”.

On to `OCCN(CCO)c1nc(N2CCCCC2)c2nc(N(CCO)CCO)nc(N3CCCCC3)c2n1` [DIPYRIDAMOLE], for which the IC50 result (in data set [1]; in data set [2]; at Insulin receptor; in data set [3] (insect cells); in data set [4] (cho-k1); in data set [5]) was “Not Active” throughout. For the same compound, the Ki result in data set [1] and in data set [2] was “Not Active” throughout.

Regarding `Cc1oncc1C(=O)Nc1ccc(C(F)(F)F)cc1` [LEFLUNOMIDE], the concentration for half-maximal inhibition (IC50) entry (in data set [1]; in data set [2]; on Insulin receptor; in data set [3] (insect cells); in data set [4] (cho-k1); in data set [5]) was “Not Active” in each case. Besides, the Ki entry in data set [1] and in data set [2] was “Not Active” in each case.

For `c1ccc([C@H]2CN3CCSC3=N2)cc1` [LEVAMISOLE], the IC50 in data set [1] (read-out: IC50) was 4.39 µM; in data set [2], “Not Active”; on Insulin receptor it was “Not Active”; in data set [3] (insect cells), “Not Active”; in data set [4] (cho-k1) it was “Not Active”; in data set [5] it was “Not Active”. Besides, the IC50 result at Cytochrome P450 1A2 is “Not Active”. The Ki – broadly, a dissociation constant, usually derived from enzyme kinetics or from competition with a known ligand – in data set [1] (read-out: Ki) was 2.7 µM; in data set [2] it was “Not Active”; on Cytochrome P450 1A2, “Not Active”.

Consider `N[C@@H](Cc1ccc(O)c(O)c1)C(=O)O` [LEVODOPA], for which the IC50 entry (in data set [1]; in data set [2]; against Insulin receptor; in data set [3] (insect cells); in data set [4] (cho-k1); in data set [5]) was “Not Active” each time. For the same compound, the IC50 entry on Cytochrome P450 1A2 is “Not Active”. Besides, the Ki entry (in data set [1]; in data set [2]; at Cytochrome P450 1A2) was “Not Active” in each case.

Take `N[C@@H](Cc1cc(I)c(Oc2ccc(O)c(I)c2)c(I)c1)C(=O)O` [LIOTHYRONINE]: the half-inhibitory concentration (IC50) result (against Insulin receptor; in data set [3] (insect cells); in data set [4] (cho-k1); in data set [5]) was “Not Active” each time.

For `O=NN(CCCl)C(=O)NC1CCCCC1` [LOMUSTINE], the IC50 result (in data set [1]; in data set [2]; against Insulin receptor; in data set [3] (insect cells); in data set [4] (cho-k1); in data set [5]) was “Not Active” throughout. The IC50 result against Cytochrome P450 1A2 is on record as “Not Active”. Further, the Ki result (in data set [1]; in data set [2]; at Cytochrome P450 1A2) was “Not Active” throughout.

Regarding `CCOC(=O)N1CCC(=C2c3ccc(Cl)cc3CCc3cccnc32)CC1` [LORATADINE], the IC50 entry (in data set [1]; in data set [2]; on Insulin receptor; in data set [3] (insect cells); in data set [4] (cho-k1); in data set [5]) was “Not Active” in each case. In addition, the inhibition constant Ki result in data set [1] and in data set [2] was “Not Active” in each case.

`Cn1ccnc1S` [METHIMAZOLE]: the IC50 entry (in data set [1]; in data set [2]; on Insulin receptor; in data set [3] (insect cells); in data set [4] (cho-k1); in data set [5]) was “Not Active” throughout. The Ki entry in data set [1] and in data set [2] was “Not Active” in each case.

As for `CC[C@@H](CO)NC(=O)[C@@H]1C=C2c3cccc4[nH]cc(c34)C[C@H]2N(C)C1` [METHYLERGONOVINE], the IC50 result (in data set [1]; in data set [2]; against Insulin receptor; in data set [3] (insect cells); in data set [5]; against Cytochrome P450 1A2) was “Not Active” each time. In addition, the Ki entry (in data set [1]; in data set [2]; at Cytochrome P450 1A2) was “Not Active” throughout.

For the compound `CN1CCN(CCCN2c3ccccc3Sc3ccc(Cl)cc32)CC1` [PROCHLORPERAZINE], the IC50 entry (at Insulin receptor; in data set [3] (insect cells); in data set [4] (cho-k1); in data set [5]) was “Not Active” in each case.

Turning to `Nc1nc2ccc(OC(F)(F)F)cc2s1` [RILUZOLE], the concentration for half-maximal inhibition (IC50) entry (in data set [1]; in data set [2]; against Insulin receptor; in data set [3] (insect cells); in data set [4] (cho-k1); in data set [5]) was “Not Active” each time. Further, the Ki entry in data set [1] and in data set [2] was “Not Active” each time.

Consider `Cc1nc2n(c(=O)c1CCN1CCC(c3noc4cc(F)ccc34)CC1)CCCC2` [RISPERIDONE], for which the IC50 entry (against Insulin receptor; in data set [3] (insect cells); in data set [4] (cho-k1); in data set [5]; against Cytochrome P450 1A2) was “Not Active” each time. In addition, the Ki entry at Cytochrome P450 1A2 is “Not Active”.

With `CSc1ccc(/C=C2/C(C)=C(CC(=O)O)c3cc(F)ccc32)cc1` [SULINDAC SULFIDE], the IC50 result (in data set [1]; in data set [2]; at Insulin receptor; in data set [3] (insect cells); in data set [4] (cho-k1); in data set [5]) was “Not Active” in each case. The inhibitory constant (Ki) result in data set [1] and in data set [2] was “Not Active” throughout.

For the compound `CC/C(=C(\c1ccccc1)c1ccc(OCCN(C)C)cc1)c1ccccc1` [TAMOXIFEN], the half-maximal inhibitory concentration (IC50) result was “Not Active” against Insulin receptor; 2.95 µM in data set [3] (read-out: IC50); 17.3 µM in data set [4] (read-out: IC50); “Not Active” in data set [5]; “Not Active” against Cytochrome P450 1A2. The Ki in data set [4] (read-out: Ki) is 9.98 µM; on Cytochrome P450 1A2 it was “Not Active”.

As for `CC(C)N1CCN(c2ccc(OCC3COC(Cn4cncn4)(c4ccc(Cl)cc4Cl)O3)cc2)CC1` (stereo not given) [TERCONAZOLE], the IC50 is 0.317 µM in data set [1] (read-out: IC50); “Not Active” in data set [2]; “Not Active” on Insulin receptor; “Not Active” in data set [3] (insect cells); “Not Active” in data set [5]; “Not Active” against Cytochrome P450 1A2. In addition, the values for the inhibition constant Ki (in data set [1] (read-out: Ki); in data set [2]; on Cytochrome P450 1A2) were 0.195 µM, “Not Active” and “Not Active”, respectively.
